From patent publication US20050075375A1 (priority 2003, published 2005) come the findings set out here.

The structures appear in SMILES notation. Read-outs that look alike come from different tables or passages of the source.

The subject of the assay is monocistronic NK5.1 HCV replicon in Huh7 cells. In words: HCV replicon assay, monocistronic replicon cell line. The class given is cell-based, hepatitis C virus. The following applies: read-out: Mono EC50 Median. Put shortly: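 EC50 derives from the HCV RNA/GAPDH RNA ratio by one-step TaqMan RT-PCR, relative to DMSO-only wells. Compounds (six half-log concentrations, 0.6% DMSO) were incubated 3 days at 37 °C with NK5.1 monocistronic replicon Huh7 cells plated a day earlier.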

The mark [1] stands for this setting: Hepatitis C virus, Huh-7, 72 h, Table 1, monocistronic replicon in Huh7 cells, 3 days incubation, HCV RNA/GAPDH RNA by TaqMan RT-PCR.
Setting [2] is: Hepatitis C virus, Huh-7, monocistronic NK5.1 HCV replicon in Huh7 cells, median value.

For the compound `O=[N+]([O-])c1cccnc1-c1noc(-c2cc(O)ccc2O)n1` [Compound 171, 2-[3-(3-Nitro-pyridin-2-yl)-[1,2,4]oxadiazol-5-yl]-benzene-1,4-diol], the EC50 under setting [1] came out at 5.4 µM. Consider `Cc1ccc(O)c(-c2nc(-c3ccccn3)no2)c1` [Compound 172, 4-Methyl-2-(3-pyridin-2-yl-[1,2,4]oxadiazol-5-yl)-phenol], for which the EC50 under setting [1] was found to be 6 µM. For the compound `O=[N+]([O-])c1ccc(Cl)c(-c2nc(-c3ccccn3)no2)c1` [Compound 173, 2-[5-(2-Chloro-5-nitro-phenyl)-[1,2,4]oxadiazol-3-yl]-pyridine], the concentration for a half-maximal effect (EC50) under setting [1] was found to be 3.8 µM. Same read-out and setting: the figure for `Cc1ccc(O)c(-c2nc(-c3ncccc3[N+](=O)[O-])no2)c1` [Compound 174, 4-Methyl-2-[3-(3-nitro-pyridin-2-yl)-[1,2,4]oxadiazol-5-yl]-phenol] is 10 µM. As to `COc1ccc(-c2nc(-c3ncccc3C)no2)c(O)c1` [Compound 175, 5-Methoxy-2-[3-(3-methyl-pyridin-2-yl)-[1,2,4]oxadiazol-5-yl]-phenol], the EC50 under setting [1] amounted to 0.5 µM.

Turning to `COc1cccc(-c2nc(-c3ncccc3C)no2)c1` [Compound 176, 2-[5-(3-Methoxy-phenyl)-[1,2,4]oxadiazol-3-yl]-3-methyl-pyridine], under setting [1], the concentration giving a half-maximal response (EC50) was found to be 13 µM.

Turning to `Cc1cccnc1-c1noc(-c2cccc3ccccc23)n1` [Compound 177, 3-Methyl-2-(5-naphthalen-1-yl-[1,2,4]oxadiazol-3-yl)-pyridine], the EC50 under setting [1] is 7.2 µM.

In the case of `COc1ccc(OC)c(-c2nc(-c3ncccc3C)no2)c1` [Compound 178, 2-[5-(2,5-Dimethoxy-phenyl)-[1,2,4]oxadiazol-3-yl]-3-methyl-pyridine], the concentration for a half-maximal effect (EC50) under setting [1] is above 32 µM. Same read-out and setting: the figure for `Cc1cccnc1-c1noc(-c2cc(O)ccc2O)n1` [Compound 179, 2-[3-(3-Methyl-pyridin-2-yl)-[1,2,4]oxadiazol-5-yl]-benzene-1,4-diol] is 1.3 µM; for `Cc1cccnc1-c1noc(-c2ccc(N(C)C)cc2O)n1` [Compound 180] it is 2.1 µM; for `Cc1cccnc1-c1noc(-c2cccc([N+](=O)[O-])c2)n1` [Compound 181] it is above 32 µM. Same read-out and setting: the figure for `Cc1cccnc1-c1noc(-c2ccc([N+](=O)[O-])cc2Cl)n1` [Compound 182, 2-[5-(2-Chloro-4-nitro-phenyl)-[1,2,4]oxadiazol-3-yl]-3-methyl-pyridine] is 12 µM; for `COc1ccc2ccccc2c1-c1nc(-c2ncccc2C)no1` [Compound 183] it is above 32 µM. Regarding `COc1cccc(-c2nc(-c3ncccc3C)no2)c1O` [Compound 184, 2-Methoxy-6-[3-(3-methyl-pyridin-2-yl)-[1,2,4]oxadiazol-5-yl]-phenol], the half-maximal effective concentration (EC50) under setting [1] turned out to be 0.68 µM.

In the case of `COc1ccc(O)c(-c2nc(-c3ncccc3C)no2)c1` [Compound 185, 4-Methoxy-2-[3-(3-methyl-pyridin-2-yl)-[1,2,4]oxadiazol-5-yl]-phenol], the EC50 under setting [1] was 1.6 µM. With `Cc1cccnc1-c1noc(-c2cc(Cl)ccc2O)n1` [Compound 186, 4-Chloro-2-[3-(3-methyl-pyridin-2-yl)-[1,2,4]oxadiazol-5-yl]-phenol], the EC50 under setting [1] was 3.9 µM. In the case of `Cc1cccnc1-c1noc(-c2cc(F)ccc2O)n1` [Compound 187], the EC50 (Table 1, monocistronic replicon in Huh7 cells, 3 days incubation, HCV RNA/GAPDH RNA by TaqMan RT-PCR) came to 6.5 µM.

`Cc1cccnc1-c1noc(-c2ccccc2O)n1` [Compound 188, 2-[3-(3-Methyl-pyridin-2-yl)-[1,2,4]oxadiazol-5-yl]-phenol]: under setting [1], the concentration giving a half-maximal response (EC50) is above 32 µM.

For the compound `Cc1cccnc1-c1noc(-c2c(O)ccc3ccccc23)n1` [Compound 189, 1-[3-(3-Methyl-pyridin-2-yl)-[1,2,4]oxadiazol-5-yl]-naphthalen-2-ol], under setting [1], the concentration for a half-maximal effect (EC50) is 1.2 µM. Turning to `Cc1cccnc1-c1noc(-c2cc(Br)ccc2O)n1` [Compound 190, 4-Bromo-2-[3-(3-methyl-pyridin-2-yl)-[1,2,4]oxadiazol-5-yl]-phenol], under setting [1], the 50% effective concentration (EC50) worked out at 0.69 µM. For the compound `Cc1cccnc1-c1noc(-c2cc([N+](=O)[O-])ccc2Cl)n1` [Compound 191, 2-[5-(2-Chloro-5-nitro-phenyl)-[1,2,4]oxadiazol-3-yl]-3-methyl-pyridine], the EC50 under setting [1] is 2 µM. Regarding `Cc1ccc(O)c(-c2nc(-c3ncccc3C)no2)c1` [Compound 192, 4-Methyl-2-[3-(3-methyl-pyridin-2-yl)-[1,2,4]oxadiazol-5-yl]-phenol], the EC50 under setting [1] is above 32 µM. Turning to `COc1ccc(OC)c(-c2nc(-c3nccc4ccccc34)no2)c1` [Compound 193, 1-[5-(2,5-Dimethoxy-phenyl)-[1,2,4]oxadiazol-3-yl]-isoquinoline], under setting [1], the 50% effective concentration (EC50) turned out to be 1.3 µM. `Cc1ccc(O)c(-c2nc(-c3nccc4ccccc34)no2)c1` [Compound 194, 2-(3-Isoquinolin-1-yl-[1,2,4]oxadiazol-5-yl)-4-methyl-phenol]: under setting [1], the concentration for a half-maximal effect (EC50) is above 10 µM. Take `O=[N+]([O-])c1ccc(O)c(-c2nc(-c3nccc4ccccc34)no2)c1` [Compound 195, 2-(3-Isoquinolin-1-yl-[1,2,4]oxadiazol-5-yl)-4-nitro-phenol]: the EC50 under setting [1] is above 32 µM. Consider `Oc1ccc(O)c(-c2nc(-c3nccc4ccccc34)no2)c1` [Compound 196, 2-(3-Isoquinolin-1-yl-[1,2,4]oxadiazol-5-yl)-benzene-1,4-diol], for which, under setting [1], the EC50 is above 32 µM. `COc1cccc(-c2nc(-c3nccc4ccccc34)no2)c1` [Compound 197, 1-[5-(3-Methoxy-phenyl)-[1,2,4]oxadiazol-3-yl]-isoquinoline]: under setting [1], the concentration giving a half-maximal response (EC50) is above 32 µM. Regarding `Oc1ccc(Cl)cc1-c1nc(-c2nccc3ccccc23)no1` [Compound 198, 4-Chloro-2-(3-isoquinolin-1-yl-[1,2,4]oxadiazol-5-yl)-phenol], the concentration for a half-maximal effect (EC50) under setting [1] is above 32 µM. As to `Oc1ccc(F)cc1-c1nc(-c2nccc3ccccc23)no1` [Compound 199, 4-Fluoro-2-(3-isoquinolin-1-yl-[1,2,4]oxadiazol-5-yl)-phenol], under setting [1], the EC50 came out at 1.1 µM. With `c1ccc2c(-c3nc(-c4nccc5ccccc45)no3)cccc2c1` [Compound 200, 1-(5-Naphthalen-1-yl-[1,2,4]oxadiazol-3-yl)-isoquinoline], the 50% effective concentration (EC50) under setting [1] is above 32 µM.

As to `CN(C)c1ccc(-c2nc(-c3nccc4ccccc34)no2)c(O)c1` [Compound 201, 5-Dimethylamino-2-(3-isoquinolin-1-yl-[1,2,4]oxadiazol-5-yl)-phenol], the half-maximal effective concentration (EC50) under setting [1] was above 32 µM. Same read-out and setting: the result for `COc1ccc(O)c(-c2nc(-c3nccc4ccccc34)no2)c1` [Compound 202, 2-(3-Isoquinolin-1-yl-[1,2,4]oxadiazol-5-yl)-4-methoxy-phenol] reads 1.9 µM.

As for `COc1ccc2ccccc2c1-c1nc(-c2nccc3ccccc23)no1` [Compound 203, 1-[5-(2-Methoxy-naphthalen-1-yl)-[1,2,4]oxadiazol-3-yl]-isoquinoline], the concentration giving a half-maximal response (EC50) under setting [1] amounted to 23 µM. Consider `Oc1ccc(Br)cc1-c1nc(-c2nccc3ccccc23)no1` [Compound 204], for which the EC50 under setting [1] was determined as 1.6 µM.

As for `COc1ccc(-c2nc(-c3nccc4ccccc34)no2)c(O)c1` [Compound 205, 2-(3-Isoquinolin-1-yl-[1,2,4]oxadiazol-5-yl)-5-methoxy-phenol], the EC50 under setting [1] was determined as 1 µM. `Oc1ccccc1-c1nc(-c2nccc3ccccc23)no1` [Compound 206]: under setting [1], the concentration giving a half-maximal response (EC50) was 1.4 µM. `COc1cccc(-c2nc(-c3ncccc3C(F)(F)F)no2)c1O` [Compound 207, 2-Methoxy-6-[3-(3-trifluoromethyl-pyridin-2-yl)-[1,2,4]oxadiazol-5-yl]-phenol]: under setting [1], the EC50 was 17 µM. For the compound `COc1ccc(O)c(-c2nc(-c3ncccc3C(F)(F)F)no2)c1` [Compound 208, 4-Methoxy-2-[3-(3-trifluoromethyl-pyridin-2-yl)-[1,2,4]oxadiazol-5-yl]-phenol], the EC50 under setting [1] was found to be 3.5 µM.

On to `COc1cccc(-c2nc(-c3nccc4ccccc34)no2)c1O` [Compound 209, 2-(3-Isoquinolin-1-yl-[1,2,4]oxadiazol-5-yl)-6-methoxy-phenol], for which, under setting [1], the 50% effective concentration (EC50) came to 7.4 µM. On the same count and under the same terms, the figure for `Oc1ccc2ccccc2c1-c1nc(-c2nccc3ccccc23)no1` [Compound 210, 1-(3-Isoquinolin-1-yl-[1,2,4]oxadiazol-5-yl)-naphthalen-2-ol] is 2.4 µM.

In the case of `COc1ccc(-c2nc(-c3ncccc3C(F)(F)F)no2)c(O)c1` [Compound 211, 5-Methoxy-2-[3-(3-trifluoromethyl-pyridin-2-yl)-[1,2,4]oxadiazol-5-yl]-phenol], the EC50 runs as follows: under setting [1], 11 µM; under setting [2], 11 µM. Consider `O=[N+]([O-])c1ccc(-c2nc(-c3nccc4ccccc34)no2)c(Cl)c1` [Compound 212], for which the EC50 is, setting by setting: under setting [1], above 32 µM; under setting [2], above 32 µM. Consider `Oc1ccc(Br)cc1-c1nc(-c2ccc(C(F)(F)F)cn2)no1` [Compound 213], for which the EC50 under setting [1] was found to be 25 µM and the EC50 under setting [2] was found to be 25 µM. Turning to `COc1ccc(OC)c(-c2nc(-c3ccc(C(F)(F)F)cn3)no2)c1` [Compound 214, 2-[5-(2,5-Dimethoxy-phenyl)-[1,2,4]oxadiazol-3-yl]-5-trifluoromethyl-pyridine], the EC50 came to 18 µM under setting [1] and 18 µM under setting [2].

Consider `O=[N+]([O-])c1cccc(-c2nc(-c3ccc(C(F)(F)F)cn3)no2)c1` [Compound 215, 2-[5-(3-Nitro-phenyl)-[11,2,4]oxadiazol-3-yl]-5-trifluoromethyl-pyridine], for which the EC50 by setting is: under setting [1], 31 µM; under setting [2], 31 µM. As to `Oc1ccc(O)c(-c2nc(-c3ccc(C(F)(F)F)cn3)no2)c1` [Compound 217, 2-[3-(5-Trifluoromethyl-pyridin-2-yl)-[1,2,4]oxadiazol-5-yl]-benzene-1,4-diol], the concentration for a half-maximal effect (EC50) came out at 2.1 µM under setting [1] and 2.1 µM under setting [2].

As usually defined, the EC50 is the concentration at which the effect is half-maximal.
